Source: patent publication US20090131539A1 (priority 2005, published 2009)

Test system: Varroa mites
Experiment: Test set-up 2004: honeybee colonies infested with Varroa mites, count of mites fallen down in the hive
Type: in vivo, Varroa destructor or Varroa jacobsoni
Description: For the test set-up 2004 two bee colonies (A and B) were chosen, which were not used for honey production because of the medium applied for subsequent evaluation of residues and also because colony B was a swarming colony. Each colony consisted of approx. 25,000 animals. Both colonies were housed each in two so-called ‘Herold’ or ‘Zeitler’ hives with 10 frames. Their infestation, colony size, brood and general state was examined and approved.
In the beginning only hive A was treated with the mixture, hive B remained untreated in order to gain reference data. Over a period of 3½ months seven treatments took place with a longer break period of more than 30 days between two treatment cycles. At the end, two treatments with Perizin® were carried out in order to check on remaining mite infestation.
Approx. […] The hive was opened and from the top the medium was finely distributed with the lance at 5 cm intervals into the spaces between the frames. First the lower than immediately the upper frame was treated.
Before the hive was covered again two minutes were allowed for aeration. The time needed for treatment of each hive was one to two minutes (without aeration).
In order to ascertain the amount of mites fallen down in the hive the floor boards of both hives (A and B) were lined entirely with two ‘diapers’ and covered with Vaseline coated paper. This was done in order to make sure that mites which might have been still alive were prevented from running away. This process was repeated after every mite count.
The colonies C to L represented reference colonies and served to ascertain the Varroa density at the location (those hives were only lined with diapers). As those were predominantly migrating colonies they were not available throughout the whole duration of the treatment, but they still represent the general situation.
Especially as many apiarists relocate their hives there is always infestation with Varroa in spite of preventive measures taken. When recording the mites found amounts of 50 animals were counted exactly.
The course of the test is outlined here in note form: […]

O=CO [formic acid]
count of mites fallen down in the hive (reference colony C, check-up 6 Sep. 2004, after formic acid (60%) evaporation of 30 Aug., amounts above 50 partially counted and extrapolated): 1.200 | count of mites fallen down in the hive (reference colony C, check-up 20 Sep. 2004, after second formic acid treatment of 6 Sep.): 160 | count of mites fallen down in the hive (reference colony D, check-up 6 Sep. 2004, after formic acid (60%) evaporation of 30 Aug., amounts above 50 partially counted and extrapolated): 600 | count of mites fallen down in the hive (reference colony D, check-up 20 Sep. 2004, after second formic acid treatment of 6 Sep.): 40 | count of mites fallen down in the hive (reference colony E, check-up 6 Sep. 2004, after formic acid (60%) evaporation of 30 Aug., amounts above 50 partially counted and extrapolated): 400 | count of mites fallen down in the hive (reference colony E, check-up 20 Sep. 2004, after second formic acid treatment of 6 Sep.): 50 | count of mites fallen down in the hive (reference colony F, check-up 6 Sep. 2004, after formic acid (60%) evaporation of 30 Aug.): 50 | count of mites fallen down in the hive (reference colony F, check-up 20 Sep. 2004, after second formic acid treatment of 6 Sep.): 10 | count of mites fallen down in the hive (reference colony G, check-up 6 Sep. 2004, after formic acid (60%) evaporation of 30 Aug., amounts above 50 partially counted and extrapolated): 400 | count of mites fallen down in the hive (reference colony G, check-up 20 Sep. 2004, after second formic acid treatment of 6 Sep.): 100 | count of mites fallen down in the hive (reference colony H, check-up 6 Sep. 2004, after formic acid (60%) evaporation of 30 Aug., amounts above 50 partially counted and extrapolated): 500 | count of mites fallen down in the hive (reference colony H, check-up 20 Sep. 2004, after second formic acid treatment of 6 Sep.): 240 | count of mites fallen down in the hive (reference colony I, check-up 6 Sep. 2004, after formic acid (60%) evaporation of 30 Aug.): 50 | count of mites fallen down in the hive (reference colony I, check-up 20 Sep. 2004, after second formic acid treatment of 6 Sep.): 38 | count of mites fallen down in the hive (reference colony J, check-up 6 Sep. 2004, after formic acid (60%) evaporation of 30 Aug., amounts above 50 partially counted and extrapolated): 200 | count of mites fallen down in the hive (reference colony J, check-up 20 Sep. 2004, after second formic acid treatment of 6 Sep.): 44 | count of mites fallen down in the hive (reference colony K, check-up 6 Sep. 2004, after formic acid (60%) evaporation of 30 Aug., amounts above 50 partially counted and extrapolated): 200 | count of mites fallen down in the hive (reference colony K, check-up 20 Sep. 2004, after second formic acid treatment of 6 Sep.): 60 | count of mites fallen down in the hive (reference colony L, check-up 6 Sep. 2004, after formic acid (60%) evaporation of 30 Aug., amounts above 50 partially counted and extrapolated): 200 | count of mites fallen down in the hive (reference colony L, check-up 20 Sep. 2004, after second formic acid treatment of 6 Sep.): 100
